Measured values taken from patent US20040157738A1, “Novel oxygen containing fused cyclic derivatives and herbicidal, desiccant and defoliate compositions containing them” (ISHIHARA SANGYO KAISHA, LTD., priority 2003, published 2004).

Legend:
Format in all cases: in vivo
[1] = system: wheat (Triticum aestivum L.), TRZAX; assay: Test Example 2: post-emergence (foliage treatment) herbicidal activity (growth controlling degree); details: 2.8 leaf stage
Procedure, shortened: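 Herbicidal effect is rated by eye as growth control from 0 (like untreated plants) to 100 (plants killed). Compound, formulated as wettable powder or emulsifiable concentrate, is applied post-emergence to foliage in water at 500 L/ha with 0.1%(v/v) spreader.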

[2] = system: japanese bulrush (Scirpus juncoides: SCPJO); assay: Test Example 3: water application herbicidal activity, paddy (growth controlling degree); details: rate 63 g a.i./ha, water application under submerged condition, paddy pot, japanese bulrush at 0.5 leaf stage; for pest or weed control at 63 g/ha: Schoenoplectiella juncoides, 336 h
Source text: (§1) Paddy field soil was put into a {fraction (1/1,000,000)} ha pot, and seeds of barnyardgrass (Echinochloa oryzicola: ECHOR) and japanese bulrush (Scirpus juncoides: SCPJO) were sown and slightly covered with soil. Then the pot was left to stand still in a greenhouse in a state where the depth of flooding water was from 0.5 to 1 cm, and one day later, tubers of japanese ribbon wapato (Sagittaria pygmaea: SAGPY) were planted. Thereafter, the depth of flooding water was maintained at a level of from 3 to 4 cm, and when barnyardgrass and japanese bulrush reached a 0.5 leaf stage, an aqueous diluted solution of a wettable powder or emulsifiable concentrate having the compound of the present invention formulated in accordance with a usual formulation method, was uniformly applied under submerged condition by a pipette so that the dose of the active ingredient would be at a predetermined level. On the other hand, paddy filed soil was put into a {fraction (1/1,000,000)} ha pot and puddled and leveled, and the depth of flooding water was from 3 to 4 cm. One day later, rice (Oryza sativa L.: ORYSA) of 2 leaf stage was transplanted in a depth of 3 cm. On the 4th day after the transplantation, the compound of the present invention was applied in the same manner as described above. On the 14th day after the application of the herbicide, the growth of barnyardgrass, japanese burlush and japanese ribbon wapato was visually observed and on the 21st day after the application of the herbicide, the growth of rice was visually observed, and the herbicidal effects were evaluated by growth controlling degrees (%) ranging from 0 (equivalent to the untreated control) to 100 (complete kill), whereby the results shown in Table 13, were obtained. Compound Nos. in Table 13 correspond to Compound Nos. in Table 1 to 7 given hereinbefore.

[3] = system: rice (Oryza sativa L.: ORYSA); assay: as above; details: rate 63 g a.i./ha, paddy pot, rice of 2 leaf stage transplanted, treated on the 4th day after transplantation; for pest or weed control at 63 g/ha: Oryza sativa, 504 h
Source text: as §1

[4] = system: japanese ribbon wapato (Sagittaria pygmaea: SAGPY); assay: as above; details: rate 63 g a.i./ha; water application under submerged condition, paddy pot; tubers of japanese ribbon wapato planted
Source text: as §1

[5] = system: barnyardgrass (Echinochloa oryzicola: ECHOR); assay: as above; details: rate 63 g a.i./ha, water application under submerged condition, paddy pot, barnyardgrass at 0.5 leaf stage; for pest or weed control at 63 g/ha: Echinochloa oryzicola, 336 h
Source text: as §1

[6] = system: wheat (Triticum aestivum L.): TRZAX; assay: Test Example 1: pre-emergence herbicidal activity (growth controlling degree); details: 20th to 21st day after application
Procedure, shortened: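 Seeds sown in upland field soil in pots; one day later, wettable powder or emulsifiable concentrate diluted in water at 500 L/ha was sprayed pre-emergence at a predetermined active-ingredient amount. Growth visually scored 20–21 days after application as growth controlling degree, 0 (untreated-like) to 100% (complete kill).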

Row | SMILES | growth controlling degree, TRZAX ([1]; 63 g a.i./ha) [%] | pest or weed control at 63 g/ha [2] [%] | pest or weed control at 63 g/ha [3] [%] | Water Application Herbicidal Activity SAGPY (growth controlling degree) [4] [%] | pest or weed control at 63 g/ha [5] [%] | growth controlling degree, TRZAX ([6]; 125 g a.i./ha) [%] | growth controlling degree, TRZAX ([6]; 250 g a.i./ha) [%] | growth controlling degree, TRZAX ([1]; 31 g a.i./ha) [%] | Water Application Herbicidal Activity SCPJO (growth controlling degree) [2] [%] | Water Application Herbicidal Activity ORYSA (growth controlling degree) [3] [%] | Water Application Herbicidal Activity ECHOR (growth controlling degree) [5] [%]
1 | Cn1nc(-c2c(F)cc(Cl)c3c2CCCO3)c(Cl)c1OC(F)F [Compound 1-33, 4-chloro-3-(8-chloro-6-fluoro-3,4-dihydro-2H-1-benzopyran-5-yl)-5-(difluoromethoxy)-1-methyl-1H-pyrazole] | 98 | 100 | 80 | 100 | 100 | 70 | – | – | – | – | –
2 | Fc1cc(Cl)c2c(c1-c1ncc(C(F)(F)F)cc1Cl)CCCO2 [Compound 7-2, 3-chloro-2-(8-chloro-6-fluoro-3,4-dihydro-2H-1-benzopyran-5-yl)-5-(trifluoromethyl)-pyridine] | – | 98 | 0 | – | 100 | – | 50 | – | – | – | –
3 | CC1CCc2c(c(Cl)cc(F)c2-c2nn(C)c(C(F)(F)F)c2Cl)O1 (stereo not shown) [Compound 1-8] | – | 60 | 10 | 40 | 60 | – | – | – | – | – | –
4 | Cn1nc(-c2c(F)cc(Cl)c3c2CCC(c2ccccc2)O3)c(Cl)c1OC(F)F (stereo not shown) [Compound 1-42] | – | 98 | 35 | 100 | 100 | – | 0 | – | – | – | –
5 | Fc1cc(Cl)c2c(c1-c1nn3c(c1Cl)CCCC3)CCCO2 [Compound 1-79, 3-chloro-2-(8-chloro-6-fluoro-3,4-dihydro-2H-1-benzopyran-5-yl)-4,5,6,7-tetrahydro-pyrazolo[1,5-a]pyridine] | – | 100 | 40 | 100 | 100 | – | 10 | – | – | – | –
6 | CC1CCc2c(c(Cl)cc(F)c2-c2nn(C)c(OC(F)F)c2Cl)O1 (stereo not shown) [Compound 1-39] | – | 100 | 60 | 100 | 100 | – | – | – | – | – | –
7 | CCCCCC1CCc2c(c(Cl)cc(F)c2-c2nn(C)c(OC(F)F)c2Cl)O1 (stereo not shown) [Compound 1-101] | – | – | – | 100 | – | 20 | – | 30 | 50 | 35 | 100
8 | Cn1nc(-c2c(F)cc(Cl)c3c2CCCO3)c(Cl)c1C(F)(F)F [Compound 1-2, 4-chloro-3-(8-chloro-6-fluoro-3,4-dihydro-2H-1-benzopyran-5-yl)-1-methyl-5-(trifluoromethyl)-1H-pyrazole] | 30 | 30 | 20 | 0 | 40 | – | – | – | – | – | –
9 | CC1CCc2c(c(Cl)cc(F)c2-c2nn3c(c2Cl)CCCC3)O1 (stereo not shown) [Compound 1-85] | – | – | – | 100 | – | – | – | – | 98 | 10 | 100
